Laboratory results reported in patent US20140303144A1, “COMPOUNDS AND METHODS OF TREATING HYPERTENSION” (Medivation Technologies, Inc., priority 2011, published 2014).

Assays:
[1] = molecular target: T1, human recombinant adrenergic α2A receptor (Homo sapiens, UniProt P08913); assay: Adrenergic α2A radioligand binding assay ([3H]MK-912); settings: read-out: Percentage inhibition of ligand binding, Adrenergic α2A
T1 construct: expressed in transfected cells; host or cells: insect Sf9 cells
T1 sequence (P08913 1-465): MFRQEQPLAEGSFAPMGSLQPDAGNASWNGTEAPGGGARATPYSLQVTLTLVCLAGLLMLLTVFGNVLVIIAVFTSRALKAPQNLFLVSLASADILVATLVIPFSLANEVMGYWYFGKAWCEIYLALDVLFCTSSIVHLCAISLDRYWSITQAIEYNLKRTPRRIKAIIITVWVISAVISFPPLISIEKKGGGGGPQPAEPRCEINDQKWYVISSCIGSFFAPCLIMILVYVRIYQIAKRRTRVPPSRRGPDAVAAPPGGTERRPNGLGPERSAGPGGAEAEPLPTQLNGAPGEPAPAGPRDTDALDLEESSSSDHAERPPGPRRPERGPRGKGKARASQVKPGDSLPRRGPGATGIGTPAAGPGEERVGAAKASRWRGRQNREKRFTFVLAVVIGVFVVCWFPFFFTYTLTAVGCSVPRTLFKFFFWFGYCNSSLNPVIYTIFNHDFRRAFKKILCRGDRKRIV
Experimental: To evaluate in radioligand binding assays the activity of compounds of the invention, human recombinant adrenergic α2A receptor expressed in insect Sf9 cells (Uhlen, S. et al, J. Pharmacol. Exp. Ther. 271:1558, 1994) in a modified Tris-HCl buffer (50 mM Tris-HCl, pH 7.4, 12.5 mM MgCl2, 2 mM EDTA) was used. Compounds of invention were incubated with 1 nM [^3H]MK-912 for 60 min at 25° C. MK912 was (2S-trans)-1,3,4,5′,6,6′,7,12b-octahydro-1′,3′-dimethyl-spiro[2H-benzofuro[2,3-a]quinolizine-2,4′(1′H)-pyrimidin]-2′(3′H)-one hydrochloride Non-specific binding was estimated in the presence of 10 μM WB-4101 (2-(2,6-Dimethoxyphenoxyethyl)aminomethyl-1,4-benzodioxane hydrochloride). Receptor proteins were filtered and washed, the filters were then counted to determine [^3H]MK-912 specifically bound. Compounds were screened at 1 μM or lower, using 1% DMSO as vehicle. Compounds of the invention were tested in this biochemical assay and percent inhibition of specific binding was determined. Biochemical assay results are presented as the percent inhibition of specific binding in Tables B1A-B1D.

[2] = molecular target: T2, human recombinant adrenergic α2B receptor (Homo sapiens, UniProt P18089); assay: Adrenergic α2B radioligand binding assay ([3H]Rauwolscine); settings: read-out: Percentage inhibition of ligand binding, Adrenergic α2B
T2 construct: expressed in transfected cells; host or cells: CHO-K1 cells
T2 sequence (P18089 1-450): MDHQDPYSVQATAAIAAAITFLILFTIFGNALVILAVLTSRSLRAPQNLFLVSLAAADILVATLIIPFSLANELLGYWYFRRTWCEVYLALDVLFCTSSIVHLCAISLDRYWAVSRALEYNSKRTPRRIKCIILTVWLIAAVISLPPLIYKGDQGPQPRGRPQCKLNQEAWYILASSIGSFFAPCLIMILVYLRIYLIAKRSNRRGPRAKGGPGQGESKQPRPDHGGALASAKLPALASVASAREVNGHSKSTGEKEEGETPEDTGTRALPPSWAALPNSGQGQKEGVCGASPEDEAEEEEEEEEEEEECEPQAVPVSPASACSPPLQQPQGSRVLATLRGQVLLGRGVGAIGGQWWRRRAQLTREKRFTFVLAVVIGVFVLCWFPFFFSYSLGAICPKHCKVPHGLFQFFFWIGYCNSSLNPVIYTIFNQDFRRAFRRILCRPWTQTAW
Experimental: To evaluate in radioligand binding assays the activity of compounds of the invention, human recombinant adrenergic α2B receptor expressed in Chinese hamster ovary (CHO) K1 cells (Uhlen, S. et al, Eur. J. Pharmacol. 343(1):93, 1998) in a modified Tris-HCl buffer (50 mM Tris-HCl, pH 7.4, 12.5 mM MgCl2, 1 mM EDTA, 0.2% BSA) was used. Compounds of the invention were incubated with 2.5 nM [3H]Rauwolscine for 60 min at 25° C. Non-specific binding was estimated in the presence of 10 μM Prazosin. Receptor proteins were filtered and washed, the filters were then counted to determine [3H]Rauwolscine specifically bound. Compounds were screened at 1 μM or lower, using 1% DMSO as vehicle. Compounds of the invention were tested in this biochemical assay and percent inhibition of specific binding was determined. Biochemical assay results are presented as the percent inhibition of specific binding in Tables B1A-B1D.

[3] = molecular target: T3, human recombinant adrenergic α1D receptor (Homo sapiens, UniProt P25100); assay: Adrenergic α1D radioligand binding assay ([3H]Prazosin); settings: 1 μM compound; read-out: Percentage inhibition of ligand binding, Adrenergic α1D
T3 construct: expressed in transfected cells; host or cells: HEK-293 cells
T3 sequence (P25100 1-572): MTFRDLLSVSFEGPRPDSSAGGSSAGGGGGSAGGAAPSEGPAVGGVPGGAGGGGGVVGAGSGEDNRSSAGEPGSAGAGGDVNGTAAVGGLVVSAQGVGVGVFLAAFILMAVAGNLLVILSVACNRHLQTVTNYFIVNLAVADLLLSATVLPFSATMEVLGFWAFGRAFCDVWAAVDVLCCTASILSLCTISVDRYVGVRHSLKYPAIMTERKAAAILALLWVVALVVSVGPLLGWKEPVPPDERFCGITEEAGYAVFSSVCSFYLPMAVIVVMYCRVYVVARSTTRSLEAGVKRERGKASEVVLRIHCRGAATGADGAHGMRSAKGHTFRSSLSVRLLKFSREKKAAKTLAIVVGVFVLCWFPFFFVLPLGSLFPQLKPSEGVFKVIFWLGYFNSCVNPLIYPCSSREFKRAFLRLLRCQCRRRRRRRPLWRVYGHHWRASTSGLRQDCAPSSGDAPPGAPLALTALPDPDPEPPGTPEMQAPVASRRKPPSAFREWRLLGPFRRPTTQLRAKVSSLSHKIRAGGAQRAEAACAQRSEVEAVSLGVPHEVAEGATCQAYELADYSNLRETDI
Experimental: To evaluate in radioligand binding assays the activity of compounds of the invention, human recombinant adrenergic α1D receptor expressed in human embryonic kidney (HEK-293) cells (Kenny, B. et al, Br. J. Pharmacol. 115(6):981, 1995) in a 50 mM Tris-HCl buffer, pH 7.4, was used. Compounds were incubated with 0.6 nM [3H]Prazosin for 60 min at 25° C. Non-specific binding was estimated in the presence of 10 μM phentolamine. Receptor proteins were filtered and washed, the filters were then counted to determine [3H]Prazosin specifically bound. Compounds were screened at 1 μM or lower, using 1% DMSO as vehicle. Biochemical assay results are presented as the percent inhibition of specific binding in Tables B1A-B1D.

SH-SY5Y cells = assay: Cell viability assay (MTS reduction) against 4-Br-A23187 challenge; assay type: cell-based; settings: compound 10 nM, 4-Br-A23187 (2 μM) for 24 h; for viability at 0.01 µM: Homo sapiens, SH-SY5Y, Control = 100, Vehicle = 0, read-out: Relative Cytoprotective capacity
Experimental: SH-SY5Y cells cultured in DMEM/F12 media supplemented with 10% FBS were seeded in 96-well microplates at 150,000 cells/cm^2. After 24 h, cells were depleted from FBS and kept in culture for 24 h before the experiment. A stock solution was prepared by dissolving the calcium ionophore 4-Br-A23187 (Calbiochem Cat. N^o 100107) in DMSO at 25 mM. Cells were then treated with 4-Br-A23187 (2 μM), hydrogen peroxide (300 μM) or the mitochondrial toxin rotenone (25 μM) in the presence of vehicle or Compound of the Invention for 24 h. Cell death was determined by measurements of LDH release according to the Cytotoxicity Detection KitPlus (Roche, Mannheim, Germany). Cell viability was determined by measuring the capacity of cells to metabolize MTS tetrazolium (MTS) according to the Cytotoxicity Detection KitPlus (Roche, Mannheim, Germany) and MTS reduction was assessed by the CellTiter 96® AQueous One Solution Cell Proliferation assay (Promega Corporation, Madison, Wis., USA). Compounds were screened at 10 nM, using DMSO as vehicle. Assay results for the experiments with Br-A23187 were presented as the MTS reduction capacity (cell viability) of untreated cells (control), 4-Br-A23187-treated cells (vehicle), and co-incubation of Br-A23187 with Compounds of the Invention treated cells and using […] (FCCP) at 10 μM for 30 min as a control. This assay assesses the ability of the test compounds to protect against cell death that was mediated by mitochondrial dysfunction. In the assay, the calcium ionophore 4-Br-A23187 was used to challenge the cells, causing calcium levels to rise in mitochondria, which leads to depolarization and cell death. Test compounds were assessed for their ability to prevent cell death in response to challenge with 4-Br-A23187.

[4] = molecular target: T4, rat adrenergic α1B receptor obtained from Wistar Rat liver (Rattus norvegicus, UniProt P15823); assay: Adrenergic α1B radioligand binding assay ([3H]Prazosin); settings: 0.1 μM compound; read-out: Percentage inhibition of ligand binding, Adrenergic α1B
T4 construct: rat adrenergic α1B receptor obtained from Wistar Rat liver; from tissue; host or cells: Wistar rat liver
T4 sequence (P15823 1-515): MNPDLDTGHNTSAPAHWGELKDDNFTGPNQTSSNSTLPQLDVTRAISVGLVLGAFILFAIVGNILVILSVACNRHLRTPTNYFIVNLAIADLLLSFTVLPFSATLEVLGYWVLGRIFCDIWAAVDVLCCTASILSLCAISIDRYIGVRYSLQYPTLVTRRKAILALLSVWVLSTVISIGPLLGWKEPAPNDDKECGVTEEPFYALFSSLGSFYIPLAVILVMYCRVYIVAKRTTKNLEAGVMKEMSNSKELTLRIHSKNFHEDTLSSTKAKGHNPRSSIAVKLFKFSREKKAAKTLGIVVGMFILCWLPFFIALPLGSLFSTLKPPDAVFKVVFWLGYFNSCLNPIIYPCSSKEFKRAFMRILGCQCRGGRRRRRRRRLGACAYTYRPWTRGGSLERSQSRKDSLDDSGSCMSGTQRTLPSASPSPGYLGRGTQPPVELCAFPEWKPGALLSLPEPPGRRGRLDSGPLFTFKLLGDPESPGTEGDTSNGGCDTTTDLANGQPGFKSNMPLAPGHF
Experimental: To evaluate in radioligand binding assays the activity of compounds of the invention, rat adrenergic α1B receptor obtained from Wistar Rat liver (Garcia-S'ainz, J. et al, Biochem. Biophys. Res. Commun. 186:760, 1992; Michel, A. et al, Br. J. Pharmacol. 98:883, 1989) in a modified Tris-HCl buffer (50 mM Tris-HCl buffer, pH 7.4, 0.5 mM EDTA) was used. Compounds of the invention were incubated with 0.25 nM [^3H]Prazosin for 60 min at 25° C. Non-specific binding was estimated in the presence of 10 μM phentolamine. Receptor proteins were filtered and washed, the filters were then counted to determine [^3H]Prazosin specifically bound. Compounds were screened at 1 μM or lower, using 1% DMSO as vehicle. Compounds of the invention were tested in this biochemical assay and percent inhibition of specific binding was determined. Biochemical assay results are presented as the percent inhibition of specific binding in Tables B1A-B1D.

Cc1cc2c3c(c1)c1c(n3CC(c3ccc(F)cc3)C2)CCN(C)C1 (centres unmarked) [B3]
inhibition at 1 µM ([1]; 1 μM compound): 89% | inhibition at 1 µM ([2]; 1 μM compound): 68% | inhibition at 1 µM [3]: 38%

Cc1ccc2c(c1)c1c3n2CC(c2ccc(F)cc2)CCC3(C)CN(C)C1 (centres unmarked) [D7]
viability at 0.01 µM (SH-SY5Y cells): 72.1%

Cc1ccc2c(c1)c1c3n2CC=C(c2ccc(F)cc2)CC3(C)CN(C)C1 (centres unmarked) [D5]
viability at 0.01 µM (SH-SY5Y cells): 72.1%

Cc1cc(CC(O)c2ccncc2)c2c(c1)c1c(n2C)CCN(C)C1 (centres unmarked) [A44]
inhibition at 0.1 µM ([1]; 0.1 μM compound): -5% | inhibition at 0.03 µM ([2]; 0.03 μM compound): 31% | inhibition at 0.1 µM [4]: -3%

Cc1cc(C#Cc2ccncc2)c2[nH]c3c(c2c1)CN(C)CC3 [A5]
viability at 0.01 µM (SH-SY5Y cells): 28.8%

Cc1ccc2[nH]c3c(c2c1)CN(C)CC3(C)CCc1ccccc1 (centres unmarked) [C43]
Relative Cytoprotective capacity (SH-SY5Y cells; Control = 100, Vehicle = 0): 9.618

Cc1ccc2c(c1)c1c3n2CC(c2ccc(F)cc2)CC3(C)CN(C)C1 (centres unmarked) [D2]
viability at 0.01 µM (SH-SY5Y cells): 38.4%
